Measurements from publication PMC4979471 (Cell Death Discovery, 2015).
Read-outs that look alike come from different tables or passages of the source.

What was measured:
Assay in all cases: Kinase selectivity, P33-radiolabeled assay
Assay type in all cases: biochemical
Conditions in all cases: 10 μM ATP
ALK3/BMPR1A = target: T1, ALK3/BMPR1A (Homo sapiens, UniProt P36894)
T1 construct: purchased Reaction Biology Corp
In short: (§1)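 Percent residual kinase activity versus DMSO is reported. Conditions: compound at 10 μM, ATP at 10 μM, n = 2.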

FLT4/VEGFR3 = target: T2, FLT4/VEGFR3 (Homo sapiens, UniProt P35916)
T2 construct: purchased Reaction Biology Corp
In short: as §1

GRK6 = target: T3, GRK6 (Homo sapiens, UniProt P43250)
T3 construct: purchased Reaction Biology Corp
In short: as §1

MINK/MINK1 = target: T4, MINK/MINK1 (Homo sapiens, UniProt Q8N4C8)
T4 construct: purchased Reaction Biology Corp
In short: as §1

MRCKa/CDC42BPA = target: T5, MRCKa/CDC42BPA (Homo sapiens, UniProt Q5VT25)
T5 construct: purchased Reaction Biology Corp
In short: as §1

PBK/TOPK = target: T6, PBK/TOPK (Homo sapiens, UniProt Q96KB5)
T6 construct: purchased Reaction Biology Corp
T6 sequence (Q96KB5 1-322): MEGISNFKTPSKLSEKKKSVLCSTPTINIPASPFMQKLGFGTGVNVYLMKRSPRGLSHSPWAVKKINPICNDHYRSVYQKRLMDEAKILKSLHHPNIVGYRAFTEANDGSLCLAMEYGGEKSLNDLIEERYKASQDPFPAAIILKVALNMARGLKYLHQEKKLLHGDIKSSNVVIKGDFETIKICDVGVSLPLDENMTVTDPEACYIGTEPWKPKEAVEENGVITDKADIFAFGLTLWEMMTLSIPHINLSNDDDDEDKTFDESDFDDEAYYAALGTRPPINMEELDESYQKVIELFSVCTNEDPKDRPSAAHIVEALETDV
In short: as §1

PIM1 = target: T7, PIM1 (Homo sapiens, UniProt P11309)
T7 construct: purchased Reaction Biology Corp
In short: as §1

PKCiota = target: T8, PKCiota (Homo sapiens, UniProt P41743)
T8 construct: purchased Reaction Biology Corp
T8 sequence (P41743 1-596): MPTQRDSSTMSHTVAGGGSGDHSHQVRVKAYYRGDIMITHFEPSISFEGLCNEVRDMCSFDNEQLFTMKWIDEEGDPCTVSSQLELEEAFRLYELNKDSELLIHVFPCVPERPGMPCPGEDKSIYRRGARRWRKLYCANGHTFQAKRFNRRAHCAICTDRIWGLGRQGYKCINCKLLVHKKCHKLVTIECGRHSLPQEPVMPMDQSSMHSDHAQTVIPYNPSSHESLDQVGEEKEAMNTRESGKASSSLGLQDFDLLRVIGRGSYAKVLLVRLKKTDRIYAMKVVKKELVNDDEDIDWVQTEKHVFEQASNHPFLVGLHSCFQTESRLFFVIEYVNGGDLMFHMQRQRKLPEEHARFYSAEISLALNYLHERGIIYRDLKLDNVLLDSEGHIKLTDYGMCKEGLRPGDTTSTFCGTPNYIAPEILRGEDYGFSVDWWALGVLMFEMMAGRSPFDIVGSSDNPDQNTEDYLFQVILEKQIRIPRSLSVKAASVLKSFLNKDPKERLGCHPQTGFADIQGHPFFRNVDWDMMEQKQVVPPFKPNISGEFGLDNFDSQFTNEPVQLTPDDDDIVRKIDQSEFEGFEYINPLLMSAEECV
In short: as §1

PKD2/PRKD2 = target: T9, PKD2/PRKD2 (Homo sapiens, UniProt Q9BZL6)
T9 construct: purchased Reaction Biology Corp
T9 sequence (Q9BZL6 1-878): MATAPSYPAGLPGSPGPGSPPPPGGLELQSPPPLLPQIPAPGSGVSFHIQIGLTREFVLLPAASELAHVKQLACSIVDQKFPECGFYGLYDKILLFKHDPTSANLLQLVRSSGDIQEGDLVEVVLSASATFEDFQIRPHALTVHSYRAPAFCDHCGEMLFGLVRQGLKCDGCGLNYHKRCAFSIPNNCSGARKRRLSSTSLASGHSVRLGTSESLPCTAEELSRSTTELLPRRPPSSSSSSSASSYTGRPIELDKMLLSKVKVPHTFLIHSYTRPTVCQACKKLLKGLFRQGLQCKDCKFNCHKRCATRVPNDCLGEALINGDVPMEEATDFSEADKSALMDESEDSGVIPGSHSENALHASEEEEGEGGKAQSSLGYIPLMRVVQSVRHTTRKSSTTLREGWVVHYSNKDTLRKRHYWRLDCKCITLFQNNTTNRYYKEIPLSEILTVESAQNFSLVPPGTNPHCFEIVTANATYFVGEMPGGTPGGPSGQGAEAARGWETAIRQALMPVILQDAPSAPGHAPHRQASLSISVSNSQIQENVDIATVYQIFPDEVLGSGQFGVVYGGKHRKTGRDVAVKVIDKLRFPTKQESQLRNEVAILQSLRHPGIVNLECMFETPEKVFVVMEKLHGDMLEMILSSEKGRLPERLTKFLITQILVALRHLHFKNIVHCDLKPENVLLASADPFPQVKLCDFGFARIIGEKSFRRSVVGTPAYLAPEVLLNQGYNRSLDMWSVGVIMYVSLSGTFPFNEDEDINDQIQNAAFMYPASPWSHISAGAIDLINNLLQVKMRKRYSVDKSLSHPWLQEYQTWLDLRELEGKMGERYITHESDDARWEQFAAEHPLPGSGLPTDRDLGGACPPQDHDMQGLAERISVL
In short: as §1

SIK1 = target: T10, SIK1 (Homo sapiens, UniProt P57059)
T10 construct: purchased Reaction Biology Corp
In short: as §1

TTBK1 = target: T11, TTBK1 (Homo sapiens, UniProt Q5TCY1)
T11 construct: purchased Reaction Biology Corp
In short: as §1

WNK2 = target: T12, WNK2 (Homo sapiens, UniProt Q9Y3S1)
T12 construct: purchased Reaction Biology Corp
In short: as §1

[1] = read-out: % Enzyme Activity (relative to DMSO controls) AVG
[2] = read-out: % Enzyme Activity (relative to DMSO controls) Data 1
[3] = read-out: % Enzyme Activity (relative to DMSO controls) Data 2

T4 sequence (Q8N4C8 whole entry): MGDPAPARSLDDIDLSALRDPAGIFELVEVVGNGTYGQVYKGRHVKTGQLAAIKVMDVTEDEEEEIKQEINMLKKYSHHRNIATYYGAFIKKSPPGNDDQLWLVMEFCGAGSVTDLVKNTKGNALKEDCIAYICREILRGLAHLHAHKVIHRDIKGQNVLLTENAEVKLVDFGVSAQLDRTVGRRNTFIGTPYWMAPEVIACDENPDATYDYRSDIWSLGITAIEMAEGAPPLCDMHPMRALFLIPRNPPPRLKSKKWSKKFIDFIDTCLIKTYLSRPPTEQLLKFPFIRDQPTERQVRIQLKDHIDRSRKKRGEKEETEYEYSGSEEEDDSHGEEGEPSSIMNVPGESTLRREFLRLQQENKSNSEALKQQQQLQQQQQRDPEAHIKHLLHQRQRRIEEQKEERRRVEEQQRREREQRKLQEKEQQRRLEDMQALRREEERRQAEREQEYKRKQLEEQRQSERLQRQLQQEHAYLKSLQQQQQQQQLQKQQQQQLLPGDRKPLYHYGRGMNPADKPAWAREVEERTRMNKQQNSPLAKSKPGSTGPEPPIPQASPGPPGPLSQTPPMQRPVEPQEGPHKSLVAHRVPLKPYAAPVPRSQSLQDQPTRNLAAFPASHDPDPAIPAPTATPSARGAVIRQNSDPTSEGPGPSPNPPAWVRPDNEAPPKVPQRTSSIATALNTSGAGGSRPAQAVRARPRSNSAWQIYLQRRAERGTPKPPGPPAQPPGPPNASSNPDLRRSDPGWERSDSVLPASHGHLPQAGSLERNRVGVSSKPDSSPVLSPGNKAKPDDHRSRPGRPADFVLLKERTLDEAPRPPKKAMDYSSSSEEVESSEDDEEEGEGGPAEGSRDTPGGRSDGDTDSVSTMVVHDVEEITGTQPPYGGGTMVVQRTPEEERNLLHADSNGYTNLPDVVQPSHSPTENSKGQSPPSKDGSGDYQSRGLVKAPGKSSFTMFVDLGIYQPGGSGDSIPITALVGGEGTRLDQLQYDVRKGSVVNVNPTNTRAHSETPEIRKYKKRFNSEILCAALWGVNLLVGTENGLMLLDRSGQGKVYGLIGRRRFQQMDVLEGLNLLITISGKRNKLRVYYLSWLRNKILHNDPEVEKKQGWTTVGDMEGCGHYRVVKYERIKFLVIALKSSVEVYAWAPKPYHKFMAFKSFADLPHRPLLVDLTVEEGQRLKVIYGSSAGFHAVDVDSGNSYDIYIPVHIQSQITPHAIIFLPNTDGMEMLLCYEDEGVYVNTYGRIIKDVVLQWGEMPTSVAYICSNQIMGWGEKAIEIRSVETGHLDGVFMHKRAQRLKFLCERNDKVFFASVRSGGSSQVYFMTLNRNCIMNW
T1 sequence (P36894 24-532): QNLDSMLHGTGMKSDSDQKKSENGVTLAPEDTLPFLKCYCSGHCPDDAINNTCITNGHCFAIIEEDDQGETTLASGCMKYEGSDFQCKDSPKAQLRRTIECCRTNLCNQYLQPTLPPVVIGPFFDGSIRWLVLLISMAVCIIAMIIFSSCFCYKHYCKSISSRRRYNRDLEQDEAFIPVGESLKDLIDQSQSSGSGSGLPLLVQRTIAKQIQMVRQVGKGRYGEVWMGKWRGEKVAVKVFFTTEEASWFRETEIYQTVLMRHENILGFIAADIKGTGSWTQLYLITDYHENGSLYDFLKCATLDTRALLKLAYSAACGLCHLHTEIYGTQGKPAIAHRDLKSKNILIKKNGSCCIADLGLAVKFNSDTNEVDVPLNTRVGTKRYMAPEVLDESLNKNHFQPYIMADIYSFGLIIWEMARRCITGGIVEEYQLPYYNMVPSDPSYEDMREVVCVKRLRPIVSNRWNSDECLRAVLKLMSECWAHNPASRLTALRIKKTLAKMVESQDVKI
T10 sequence (P57059 whole entry): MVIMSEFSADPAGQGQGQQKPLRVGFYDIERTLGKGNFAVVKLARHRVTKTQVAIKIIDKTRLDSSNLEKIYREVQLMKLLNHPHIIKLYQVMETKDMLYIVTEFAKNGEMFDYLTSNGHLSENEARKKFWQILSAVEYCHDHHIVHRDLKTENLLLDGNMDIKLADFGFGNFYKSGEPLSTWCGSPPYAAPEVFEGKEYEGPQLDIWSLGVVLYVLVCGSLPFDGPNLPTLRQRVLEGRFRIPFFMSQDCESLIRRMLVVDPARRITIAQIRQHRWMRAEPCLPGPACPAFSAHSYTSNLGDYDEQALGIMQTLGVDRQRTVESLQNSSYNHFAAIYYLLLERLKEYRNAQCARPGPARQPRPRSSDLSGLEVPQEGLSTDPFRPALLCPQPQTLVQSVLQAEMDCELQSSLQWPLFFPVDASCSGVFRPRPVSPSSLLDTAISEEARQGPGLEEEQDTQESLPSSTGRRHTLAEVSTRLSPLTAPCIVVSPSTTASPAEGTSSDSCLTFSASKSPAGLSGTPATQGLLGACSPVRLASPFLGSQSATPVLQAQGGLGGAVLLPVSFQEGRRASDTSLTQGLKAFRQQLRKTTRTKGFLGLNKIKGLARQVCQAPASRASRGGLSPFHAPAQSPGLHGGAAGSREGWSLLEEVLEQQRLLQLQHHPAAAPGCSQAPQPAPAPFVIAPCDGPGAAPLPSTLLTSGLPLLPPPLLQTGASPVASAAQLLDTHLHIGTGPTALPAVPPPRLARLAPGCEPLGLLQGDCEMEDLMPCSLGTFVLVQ
T5 sequence (Q5VT25 whole entry): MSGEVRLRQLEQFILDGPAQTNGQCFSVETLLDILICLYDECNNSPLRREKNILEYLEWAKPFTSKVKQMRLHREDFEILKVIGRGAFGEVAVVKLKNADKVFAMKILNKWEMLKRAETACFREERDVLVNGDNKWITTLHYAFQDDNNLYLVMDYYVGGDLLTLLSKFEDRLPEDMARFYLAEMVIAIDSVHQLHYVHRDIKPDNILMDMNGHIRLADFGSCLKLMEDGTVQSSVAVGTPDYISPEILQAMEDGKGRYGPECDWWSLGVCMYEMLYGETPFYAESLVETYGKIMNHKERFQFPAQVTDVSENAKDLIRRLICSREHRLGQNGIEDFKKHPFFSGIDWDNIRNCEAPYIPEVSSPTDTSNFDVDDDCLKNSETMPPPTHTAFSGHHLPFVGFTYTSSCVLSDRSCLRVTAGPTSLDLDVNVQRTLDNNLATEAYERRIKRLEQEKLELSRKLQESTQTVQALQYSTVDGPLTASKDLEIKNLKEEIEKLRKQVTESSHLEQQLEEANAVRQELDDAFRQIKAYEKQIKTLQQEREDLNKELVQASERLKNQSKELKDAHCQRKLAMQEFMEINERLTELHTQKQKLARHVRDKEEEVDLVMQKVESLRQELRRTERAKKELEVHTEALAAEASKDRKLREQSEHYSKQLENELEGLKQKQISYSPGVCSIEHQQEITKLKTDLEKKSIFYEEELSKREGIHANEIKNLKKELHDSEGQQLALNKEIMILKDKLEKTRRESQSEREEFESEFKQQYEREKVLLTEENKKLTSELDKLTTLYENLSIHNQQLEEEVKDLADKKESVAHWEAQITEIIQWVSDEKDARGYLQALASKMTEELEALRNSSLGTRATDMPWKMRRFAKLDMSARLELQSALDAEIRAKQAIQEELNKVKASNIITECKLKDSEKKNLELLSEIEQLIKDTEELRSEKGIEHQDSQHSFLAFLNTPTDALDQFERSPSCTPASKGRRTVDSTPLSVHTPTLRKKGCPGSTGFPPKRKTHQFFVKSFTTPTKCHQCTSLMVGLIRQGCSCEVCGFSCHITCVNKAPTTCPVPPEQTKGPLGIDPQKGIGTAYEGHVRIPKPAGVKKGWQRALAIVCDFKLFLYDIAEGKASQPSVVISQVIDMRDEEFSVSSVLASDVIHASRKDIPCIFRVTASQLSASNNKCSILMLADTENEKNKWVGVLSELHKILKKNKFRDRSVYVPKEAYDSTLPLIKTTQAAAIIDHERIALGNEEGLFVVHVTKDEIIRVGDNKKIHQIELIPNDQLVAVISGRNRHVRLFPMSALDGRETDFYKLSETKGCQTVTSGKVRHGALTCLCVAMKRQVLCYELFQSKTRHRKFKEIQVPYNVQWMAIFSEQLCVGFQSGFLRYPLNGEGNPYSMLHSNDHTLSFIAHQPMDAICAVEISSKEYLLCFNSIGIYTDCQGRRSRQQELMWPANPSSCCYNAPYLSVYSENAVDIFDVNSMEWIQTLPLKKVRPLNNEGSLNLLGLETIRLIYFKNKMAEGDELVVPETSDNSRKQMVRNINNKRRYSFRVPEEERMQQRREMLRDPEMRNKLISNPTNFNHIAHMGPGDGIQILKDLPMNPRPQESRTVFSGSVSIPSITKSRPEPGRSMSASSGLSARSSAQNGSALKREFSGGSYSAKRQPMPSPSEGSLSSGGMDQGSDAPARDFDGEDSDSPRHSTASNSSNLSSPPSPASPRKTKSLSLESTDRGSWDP
T7 sequence (P11309 whole entry): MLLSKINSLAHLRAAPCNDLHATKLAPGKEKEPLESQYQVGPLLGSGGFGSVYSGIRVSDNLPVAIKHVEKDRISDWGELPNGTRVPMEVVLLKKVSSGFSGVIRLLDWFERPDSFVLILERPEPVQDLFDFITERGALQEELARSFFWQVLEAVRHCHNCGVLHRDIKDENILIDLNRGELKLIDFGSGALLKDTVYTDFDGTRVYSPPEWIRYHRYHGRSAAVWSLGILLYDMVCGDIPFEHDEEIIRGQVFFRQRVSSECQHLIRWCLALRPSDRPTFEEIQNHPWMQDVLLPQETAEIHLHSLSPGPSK

CC(C)(C)C(=O)N1N=CC[C@H]1c1ccccc1 [GSK′963]
remaining activity at 10 µM (ALK3/BMPR1A; [1]): 101% | remaining activity at 10 µM (ALK3/BMPR1A; [2]): 103% | remaining activity at 10 µM (ALK3/BMPR1A; [3]): 99.8% | remaining activity at 10 µM (FLT4/VEGFR3; [1]): 103% | remaining activity at 10 µM (FLT4/VEGFR3; [2]): 105% | remaining activity at 10 µM (FLT4/VEGFR3; [3]): 102% | remaining activity at 10 µM (GRK6; [1]): 104% | remaining activity at 10 µM (GRK6; [2]): 104% | remaining activity at 10 µM (GRK6; [3]): 103% | remaining activity at 10 µM (MINK/MINK1; [1]): 90.2% | remaining activity at 10 µM (MINK/MINK1; [2]): 89.8% | remaining activity at 10 µM (MINK/MINK1; [3]): 90.6% | remaining activity at 10 µM (MRCKa/CDC42BPA; [1]): 111% | remaining activity at 10 µM (MRCKa/CDC42BPA; [2]): 110% | remaining activity at 10 µM (MRCKa/CDC42BPA; [3]): 112% | remaining activity at 10 µM (PBK/TOPK; [1]): 104% | remaining activity at 10 µM (PBK/TOPK; [2]): 103% | remaining activity at 10 µM (PBK/TOPK; [3]): 105% | remaining activity at 10 µM (PIM1; [1]): 109% | remaining activity at 10 µM (PIM1; [2]): 113% | remaining activity at 10 µM (PIM1; [3]): 106% | remaining activity at 10 µM (PKCiota; [1]): 109% | remaining activity at 10 µM (PKCiota; [2]): 105% | remaining activity at 10 µM (PKCiota; [3]): 114% | remaining activity at 10 µM (PKD2/PRKD2; [1]): 102% | remaining activity at 10 µM (PKD2/PRKD2; [2]): 101% | remaining activity at 10 µM (PKD2/PRKD2; [3]): 104% | remaining activity at 10 µM (SIK1; [1]): 113% | remaining activity at 10 µM (SIK1; [2]): 113% | remaining activity at 10 µM (SIK1; [3]): 113% | remaining activity at 10 µM (TTBK1; [1]): 110% | remaining activity at 10 µM (TTBK1; [2]): 109% | remaining activity at 10 µM (TTBK1; [3]): 111% | remaining activity at 10 µM (WNK2; [1]): 97.4% | remaining activity at 10 µM (WNK2; [2]): 99.3% | remaining activity at 10 µM (WNK2; [3]): 95.5%
